Results from PubChem BioAssay AID330 (DTP/NCI, 2004).
Where “and” joins values, the source holds several entries; their conditions need not be identical. Equal values may be shown once. Toxic doses and inconclusive results are not listed. The calls were made as follows: active = survival T/C of 150% or more; inactive = T/C below 125% in these data.

System: P388 leukemia ip, CD2F1 mice, survival T/C
Test: NCI In Vivo Anticancer Drug Screen. Data for tumor model P388 Leukemia (intraperitoneal) in CD2F1 (CDF1) mice
Conditions: endpoint: median survival time, higher = longer survival
How it was run: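 Mice carrying the transplanted tumor received test compound or vehicle. Survival was recorded in each group, and the value is the treated-group measurement divided by that of the vehicle-treated control group.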

[1] = dose: 50.0 mg/kg/injection, schedule: Q01DX005 (ip), vehicle: Klucel (hydroxypropylcellulose) (HPC)
[2] = dose: 100.0 mg/kg/injection, schedule: Q01DX005 (ip), vehicle: Klucel (hydroxypropylcellulose) (HPC)
[3] = dose: 200.0 mg/kg/injection, schedule: Q01DX005 (ip), vehicle: Klucel (hydroxypropylcellulose) (HPC)
[4] = dose: 12.5 mg/kg/injection, schedule: Q01DX009 (ip), vehicle: water
[5] = dose: 25.0 mg/kg/injection, schedule: Q01DX009 (ip), vehicle: water
[6] = dose: 50.0 mg/kg/injection, schedule: Q01DX009 (ip), vehicle: water
[7] = dose: 100.0 mg/kg/injection, schedule: Q01DX009 (ip), vehicle: water
[8] = dose: 50.0 mg/kg/injection, schedule: Q04DX003 (ip), vehicle: saline with Tween-80
[9] = dose: 60.0 mg/kg/injection, schedule: Q01DX005 (ip), vehicle: saline with Tween-80
[10] = dose: 120.0 mg/kg/injection, schedule: Q01DX005 (ip), vehicle: saline with Tween-80
[11] = dose: 240.0 mg/kg/injection, schedule: Q01DX005 (ip), vehicle: saline with Tween-80
[12] = dose: 12.5 mg/kg/injection, schedule: Q01DX009 (ip), vehicle: saline
[13] = dose: 50.0 mg/kg/injection, schedule: Q01DX009 (ip), vehicle: saline with Tween-80
[14] = dose: 100.0 mg/kg/injection, schedule: Q01DX009 (ip), vehicle: saline with Tween-80
[15] = dose: 200.0 mg/kg/injection, schedule: Q01DX009 (ip), vehicle: saline with Tween-80
[16] = dose: 50.0 mg/kg/injection, schedule: Q01DX005 (ip), vehicle: saline with Tween-80
[17] = dose: 100.0 mg/kg/injection, schedule: Q01DX005 (ip), vehicle: saline with Tween-80
[18] = dose: 200.0 mg/kg/injection, schedule: Q01DX005 (ip), vehicle: saline with Tween-80
[19] = dose: 12.5 mg/kg/injection, schedule: Q04DX003 (ip), vehicle: saline with Tween-80
[20] = dose: 25.0 mg/kg/injection, schedule: Q04DX003 (ip), vehicle: saline with Tween-80
[21] = dose: 50.0 mg/kg/injection, schedule: Q01DX005 (ip), vehicle: saline
[22] = dose: 100.0 mg/kg/injection, schedule: Q01DX005 (ip), vehicle: saline
[23] = dose: 200.0 mg/kg/injection, schedule: Q01DX005 (ip), vehicle: saline

Measured: T/C

NC(N)=NCC(N)C(=O)O (stereo not drawn)
inactive: [1] 101 % of control | [2] 104 % of control | [3] 104 % of control

S=c1nnn(C2CCCN2)[nH]1 (stereo not drawn)
inactive: dose: 100.0 mg/kg/injection, schedule: Q01DX001 (ip), vehicle: Klucel (hydroxypropylcellulose) (HPC) 100 % of control | dose: 200.0 mg/kg/injection, schedule: Q01DX001 (ip), vehicle: Klucel (hydroxypropylcellulose) (HPC) 97 % of control | dose: 400.0 mg/kg/injection, schedule: Q01DX001 (ip), vehicle: Klucel (hydroxypropylcellulose) (HPC) 100 % of control

COC(=O)C1C(OCc2ccccc2)C2CCC1(OC)C=C2C (stereo not drawn)
inactive: dose: 100.0 mg/kg/injection, schedule: Q04DX002 (ip), vehicle: saline with Tween-80 91 % of control | dose: 200.0 mg/kg/injection, schedule: Q04DX002 (ip), vehicle: saline with Tween-80 98 % of control | dose: 400.0 mg/kg/injection, schedule: Q04DX002 (ip), vehicle: saline with Tween-80 91 % of control

NCC1OC(n2cnc3c(N)ncnc32)C(O)C1O (stereo not drawn)
inactive: dose: 6.25 mg/kg/injection, schedule: Q01DX009 (ip), vehicle: water 100 % of control | [4] 100 % of control | [5] 98 % of control | [6] 107 % of control | [7] 117 % of control

NCCC(=O)OCN1C(=O)C2C3C=CC(C2C1=O)C1C2C(=O)N(COC(=O)CCN)C(=O)C2C31 (stereo not drawn)
inactive: [4] 88 % of control | [5] 102 % of control | [6] 99 % of control | [7] 100 % of control | dose: 200.0 mg/kg/injection, schedule: Q01DX009 (ip), vehicle: water 118 % of control

CCCCNC1=CC(=O)c2ccccc2C1=O
inactive: [8] 99 % of control | dose: 100.0 mg/kg/injection, schedule: Q04DX003 (ip), vehicle: saline with Tween-80 92 % of control | dose: 200.0 mg/kg/injection, schedule: Q04DX003 (ip), vehicle: saline with Tween-80 88 % of control

COc1ccc2c(c1)C(=O)[C@]1(C)C3(C)OC(=O)C(c4ccccc43)[C@]21C (stereo partly drawn)
inactive: [9] 110 % of control | [10] 105 % of control | [11] 98 % of control

O=C(O)c1c(-c2ccccc2)sc2ccccc2c1=O
inactive: dose: 100.0 mg/kg/injection, schedule: Q01DX001 (ip), vehicle: saline with Tween-80 99 % of control | dose: 200.0 mg/kg/injection, schedule: Q01DX001 (ip), vehicle: saline with Tween-80 99 % of control | dose: 400.0 mg/kg/injection, schedule: Q01DX001 (ip), vehicle: saline with Tween-80 99 % of control

OCCCN1CNC(=S)NC1
inactive: [12] 106 % of control and 111 % of control | dose: 25.0 mg/kg/injection, schedule: Q01DX009 (ip), vehicle: saline 100 % of control and 105 % of control | dose: 50.0 mg/kg/injection, schedule: Q01DX009 (ip), vehicle: saline 100 % of control and 97 % of control | dose: 100.0 mg/kg/injection, schedule: Q01DX009 (ip), vehicle: saline 99 % of control and 102 % of control

CCN(CC)CCOC(=O)C(C)c1cccc2c(=O)cc(-c3ccccc3)oc12 (stereo not drawn)
inactive: [1] 90 % of control | [2] 101 % of control | [3] 101 % of control

N#Cc1ccc(NN=NCCF)cc1
inactive: dose: 6.25 mg/kg/injection, schedule: Q01DX005 (ip), vehicle: distilled water + Tween-80 100 % of control | dose: 6.25 mg/kg/injection, schedule: Q01DX005 (ip), vehicle: saline with Tween-80 117 % of control | dose: 12.5 mg/kg/injection, schedule: Q01DX005 (ip), vehicle: saline with Tween-80 121 % of control

Cc1cc(C)c(O)c(C(c2ccccc2)c2cc(C)cc(C)c2O)c1
inactive: [13] 99 % of control | [14] 118 % of control | [15] 115 % of control

COc1ccc(C(C)c2cc3c(cc2OC)OCO3)c(C)c1 (stereo not drawn)
inactive: [1] 116 % of control | [2] 92 % of control | [3] 119 % of control

C=CCC1(C)C(=O)CCC1=O
inactive: [9] 110 % of control | [10] 102 % of control | [11] 98 % of control

CCC(=N\NC(=S)NCCN(CC)CC)/C(C)=N/NC(=S)NCCN(CC)CC
inactive: dose: 1.56 mg/kg/injection, schedule: Q01DX009 (ip), vehicle: saline 94 % of control | dose: 3.13 mg/kg/injection, schedule: Q01DX009 (ip), vehicle: saline 118 % of control | dose: 6.25 mg/kg/injection, schedule: Q01DX009 (ip), vehicle: saline 106 % of control | [12] 101 % of control

Nc1nnc2nc(C(C(=O)/C=C\c3cccc(O)c3)c3nc4nnc(N)n4[nH]c3=O)c(=O)[nH]n12
inactive: [16] 95 % of control | [17] 94 % of control | [18] 100 % of control

CCCCCCCCCCCCCCCCCC(=O)NCNC(=O)CCCCCCCCCCCCCCCCC
inactive: dose: 4.68 mg/kg/injection, schedule: Q01DX009 (ip), vehicle: saline with Tween-80 100 % of control | dose: 9.37 mg/kg/injection, schedule: Q01DX009 (ip), vehicle: saline with Tween-80 100 % of control | dose: 9.37 mg/kg/injection, schedule: Q04DX003 (ip), vehicle: saline 100 % of control | dose: 18.75 mg/kg/injection, schedule: Q01DX009 (ip), vehicle: saline with Tween-80 90 % of control | dose: 18.75 mg/kg/injection, schedule: Q04DX003 (ip), vehicle: saline 95 % of control

OC(CC(O)(C(F)(F)F)C(F)(F)F)CC(O)(C(F)(F)F)C(F)(F)F
inactive: dose: 6.25 mg/kg/injection, schedule: Q04DX003 (ip), vehicle: saline with Tween-80 109 % of control | [19] 109 % of control | [20] 95 % of control

O=c1nc(-c2ccccc2)cc(CCc2ccccc2)[nH]1
inactive: [16] 90 % of control | [17] 89 % of control | [18] 102 % of control

COC(=O)CCSC(=S)NCc1ccccc1
inactive: [1] 98 % of control | [2] 96 % of control | [3] 102 % of control

COc1cc2c(cc1OC)C1CC3(CCN1CC2)CC(=O)NC3=O (stereo not drawn)
inactive: [21] 97 % of control | [22] 99 % of control | [23] 90 % of control

CC(=O)NC1C(Nc2ccc(S(=O)(=O)Nc3ncccn3)cc2)OC(CO)C(O)C1O (stereo not drawn)
inactive: [21] 106 % of control | [22] 99 % of control | [23] 101 % of control

CC(CN(C)C)CN1c2ccccc2Sc2ccccc21 (stereo not drawn)
inactive: [19] 112 % of control | [20] 115 % of control | dose: 33.0 mg/kg/injection, schedule: Q04DX003 (ip), vehicle: saline with Tween-80 123 % of control | [8] 117 % of control

CC(C)n1nnc2c3ccccc3c3ccccc3c21
inactive: [9] 109 % of control | [10] 102 % of control | [11] 105 % of control

CS/C(=C/c1ccc2ccccc2[n+]1C)N1CCCC1
inactive: dose: 0.1 mg/kg/injection, schedule: Q01DX005 (ip), vehicle: saline 103 % of control | dose: 0.2 mg/kg/injection, schedule: Q01DX005 (ip), vehicle: saline 99 % of control | dose: 0.4 mg/kg/injection, schedule: Q01DX005 (ip), vehicle: saline 100 % of control | dose: 0.78 mg/kg/injection, schedule: Q01DX005 (ip), vehicle: saline 116 % of control | dose: 1.56 mg/kg/injection, schedule: Q01DX005 (ip), vehicle: saline 111 % of control

CN1C(=O)c2ccccc2NC(=O)C12O[C@@H]2c1cccc(O)c1 (stereo partly drawn)
inactive: dose: 1.63 mg/kg/injection, schedule: Q01DX005 (ip), vehicle: DMSO 106 % of control | dose: 3.25 mg/kg/injection, schedule: Q01DX005 (ip), vehicle: DMSO 106 % of control | dose: 6.5 mg/kg/injection, schedule: Q01DX005 (ip), vehicle: DMSO 113 % of control | dose: 13.0 mg/kg/injection, schedule: Q01DX005 (ip), vehicle: DMSO 100 % of control

O=S(=O)(O)C(Nc1ccc(Cl)cc1)c1ccccc1 (stereo not drawn)
inactive: [13] 100 % of control | [14] 105 % of control | [15] 114 % of control
